Assay results from ChEMBL document CHEMBL1212896, “Discovery of novel cyanodihydropyridines as potent mineralocorticoid receptor antagonists” (J Med Chem, 2010).
Converted amounts (≈) assume the structure as drawn.

How the values were obtained:
[1] = test system: Liver microsomes; assay: Metabolic stability in rat liver microsomes assessed as compound remaining; assay type: ADME, Microsome; further: time not given here
[2] = molecular target: T1, Androgen receptor (Homo sapiens, UniProt P10275); assay: Antagonist activity at androgen receptor LBD expressed in human HUH7 cells coexpressing GAL4 by luciferase reporter gene assay; assay type: functional, cell-based, Huh-7
T1 sequence (P10275 whole entry): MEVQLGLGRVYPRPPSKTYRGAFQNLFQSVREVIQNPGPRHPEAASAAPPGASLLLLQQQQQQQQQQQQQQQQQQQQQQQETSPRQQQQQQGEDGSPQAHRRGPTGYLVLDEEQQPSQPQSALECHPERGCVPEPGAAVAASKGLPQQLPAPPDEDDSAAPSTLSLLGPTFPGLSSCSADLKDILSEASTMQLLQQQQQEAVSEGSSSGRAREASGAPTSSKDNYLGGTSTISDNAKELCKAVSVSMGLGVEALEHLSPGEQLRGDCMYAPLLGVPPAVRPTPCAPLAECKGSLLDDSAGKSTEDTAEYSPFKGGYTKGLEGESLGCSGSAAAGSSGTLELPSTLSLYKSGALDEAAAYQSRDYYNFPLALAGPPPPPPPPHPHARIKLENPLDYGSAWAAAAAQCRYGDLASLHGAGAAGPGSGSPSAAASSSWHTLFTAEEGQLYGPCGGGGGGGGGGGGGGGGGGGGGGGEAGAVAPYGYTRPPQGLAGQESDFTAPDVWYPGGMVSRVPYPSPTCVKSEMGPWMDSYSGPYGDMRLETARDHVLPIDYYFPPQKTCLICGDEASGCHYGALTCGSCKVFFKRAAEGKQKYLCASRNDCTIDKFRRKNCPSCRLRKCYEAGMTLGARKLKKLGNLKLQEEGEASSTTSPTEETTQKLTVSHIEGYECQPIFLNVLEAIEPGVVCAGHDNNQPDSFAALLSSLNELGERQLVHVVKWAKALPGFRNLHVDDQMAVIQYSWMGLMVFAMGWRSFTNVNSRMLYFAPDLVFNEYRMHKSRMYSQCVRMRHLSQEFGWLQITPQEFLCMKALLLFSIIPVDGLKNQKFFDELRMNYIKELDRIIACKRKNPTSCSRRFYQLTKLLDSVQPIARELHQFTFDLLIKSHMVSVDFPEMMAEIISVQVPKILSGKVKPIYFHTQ

[3] = molecular target: T2, Glucocorticoid receptor (Homo sapiens, UniProt P04150); assay: Antagonist activity at glucocorticoid receptor LBD expressed in human HUH7 cells coexpressing GAL4 by luciferase reporter gene assay; assay type: functional, cell-based, Huh-7
T2 sequence (P04150 whole entry): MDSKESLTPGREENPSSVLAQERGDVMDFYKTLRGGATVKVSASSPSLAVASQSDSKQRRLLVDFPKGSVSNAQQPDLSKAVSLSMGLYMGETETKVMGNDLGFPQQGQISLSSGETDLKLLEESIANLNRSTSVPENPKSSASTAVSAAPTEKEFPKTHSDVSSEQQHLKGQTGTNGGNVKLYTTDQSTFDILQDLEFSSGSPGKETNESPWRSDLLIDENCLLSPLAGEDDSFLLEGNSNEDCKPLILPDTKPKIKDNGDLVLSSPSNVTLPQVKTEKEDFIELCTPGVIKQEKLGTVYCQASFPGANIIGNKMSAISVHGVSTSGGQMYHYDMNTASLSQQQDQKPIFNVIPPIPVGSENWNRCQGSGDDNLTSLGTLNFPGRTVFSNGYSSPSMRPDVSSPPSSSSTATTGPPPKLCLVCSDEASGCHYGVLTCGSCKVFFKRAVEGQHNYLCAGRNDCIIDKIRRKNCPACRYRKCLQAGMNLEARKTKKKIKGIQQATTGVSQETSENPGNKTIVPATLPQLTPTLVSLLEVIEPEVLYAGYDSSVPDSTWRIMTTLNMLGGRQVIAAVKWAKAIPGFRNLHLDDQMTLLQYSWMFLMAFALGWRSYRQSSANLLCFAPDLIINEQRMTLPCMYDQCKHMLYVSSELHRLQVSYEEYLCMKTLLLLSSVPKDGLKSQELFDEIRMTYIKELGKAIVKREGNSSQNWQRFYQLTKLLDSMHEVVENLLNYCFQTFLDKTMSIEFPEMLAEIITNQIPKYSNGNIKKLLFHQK

[4] = molecular target: T3, Mineralocorticoid receptor (Homo sapiens, UniProt P08235)
T3 sequence (P08235 whole entry): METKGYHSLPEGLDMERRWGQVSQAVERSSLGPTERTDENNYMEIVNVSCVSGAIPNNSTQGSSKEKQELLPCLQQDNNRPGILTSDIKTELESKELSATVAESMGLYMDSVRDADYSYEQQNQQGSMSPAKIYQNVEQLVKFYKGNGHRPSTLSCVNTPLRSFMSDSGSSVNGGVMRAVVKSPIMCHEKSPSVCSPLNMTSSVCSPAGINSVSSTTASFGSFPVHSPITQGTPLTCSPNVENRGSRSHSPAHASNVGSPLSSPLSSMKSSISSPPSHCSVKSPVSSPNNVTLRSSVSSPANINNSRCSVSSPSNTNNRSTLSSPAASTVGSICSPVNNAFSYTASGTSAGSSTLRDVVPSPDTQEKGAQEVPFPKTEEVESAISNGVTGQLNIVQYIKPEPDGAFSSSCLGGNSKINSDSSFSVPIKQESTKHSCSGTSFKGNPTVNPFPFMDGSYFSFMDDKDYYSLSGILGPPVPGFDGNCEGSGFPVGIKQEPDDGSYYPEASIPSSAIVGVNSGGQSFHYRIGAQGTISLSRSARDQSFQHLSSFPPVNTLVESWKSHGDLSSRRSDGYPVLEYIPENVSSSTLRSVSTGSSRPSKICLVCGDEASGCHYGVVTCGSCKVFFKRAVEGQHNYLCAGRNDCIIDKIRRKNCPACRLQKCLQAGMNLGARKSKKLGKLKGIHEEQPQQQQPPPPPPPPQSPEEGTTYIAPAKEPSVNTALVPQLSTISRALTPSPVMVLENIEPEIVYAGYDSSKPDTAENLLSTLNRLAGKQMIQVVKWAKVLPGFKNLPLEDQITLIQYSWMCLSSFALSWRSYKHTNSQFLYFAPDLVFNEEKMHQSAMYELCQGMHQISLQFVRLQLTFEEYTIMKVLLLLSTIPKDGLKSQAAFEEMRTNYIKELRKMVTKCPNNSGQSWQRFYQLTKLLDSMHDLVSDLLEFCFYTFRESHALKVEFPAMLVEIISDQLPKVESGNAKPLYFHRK
Description: Antagonist activity at mineralocorticoid receptor LBD expressed in human HUH7 cells coexpressing GAL4 by luciferase reporter gene assay

[5] = molecular target: T4, Progesterone receptor (Homo sapiens, UniProt P06401); assay: Antagonist activity at progesterone receptor LBD expressed in human HUH7 cells coexpressing GAL4 by luciferase reporter gene assay; assay type: functional, cell-based, Huh-7
T4 sequence (P06401 whole entry): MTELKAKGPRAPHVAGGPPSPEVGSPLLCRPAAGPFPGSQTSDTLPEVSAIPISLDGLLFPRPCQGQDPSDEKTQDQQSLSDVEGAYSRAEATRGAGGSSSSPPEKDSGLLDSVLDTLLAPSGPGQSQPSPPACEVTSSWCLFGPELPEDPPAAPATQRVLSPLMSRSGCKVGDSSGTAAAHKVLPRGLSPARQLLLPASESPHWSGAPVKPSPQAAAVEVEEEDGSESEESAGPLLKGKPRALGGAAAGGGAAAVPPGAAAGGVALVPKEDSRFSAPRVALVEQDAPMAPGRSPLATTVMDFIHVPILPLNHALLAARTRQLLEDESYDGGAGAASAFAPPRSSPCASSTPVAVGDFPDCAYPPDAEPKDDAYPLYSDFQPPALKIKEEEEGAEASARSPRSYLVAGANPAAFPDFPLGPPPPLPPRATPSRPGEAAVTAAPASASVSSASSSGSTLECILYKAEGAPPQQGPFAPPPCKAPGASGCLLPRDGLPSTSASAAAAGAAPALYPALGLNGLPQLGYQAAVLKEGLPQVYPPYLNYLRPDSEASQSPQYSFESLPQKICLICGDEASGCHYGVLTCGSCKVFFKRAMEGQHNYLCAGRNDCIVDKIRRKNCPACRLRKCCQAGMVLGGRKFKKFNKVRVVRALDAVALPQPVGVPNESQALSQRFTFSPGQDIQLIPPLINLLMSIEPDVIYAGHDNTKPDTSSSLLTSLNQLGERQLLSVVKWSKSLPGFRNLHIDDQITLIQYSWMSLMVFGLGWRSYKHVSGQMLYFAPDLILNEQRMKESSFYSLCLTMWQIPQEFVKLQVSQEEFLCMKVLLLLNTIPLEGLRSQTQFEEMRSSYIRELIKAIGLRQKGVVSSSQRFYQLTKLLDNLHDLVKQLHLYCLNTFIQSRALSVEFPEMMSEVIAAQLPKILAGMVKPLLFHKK

[6] = Solubility of the compound; assay type: physicochemical
[7] = test system: Liver microsomes; assay: Metabolic stability in human liver microsomes assessed as compound remaining; assay type: ADME, Microsome; further: time not given here

| Structure (SMILES) | IC50 [4] [nM] | further results |
| --- | --- | --- |
| CCCCC1=C(C(=O)OC)C(c2ccccc2Cl)C(C#N)=C(C)N1 (stereo not given) | 58 | Stability [1]: 3%; IC50 [2]: 900 nM; IC50 [3]: 1600 nM; IC50 [5]: 300 nM; solubility [6]: < 5 µM; Stability [7]: 11% |
| COCC1=C(C(=O)OC)C(c2ccccc2Cl)C(C#N)=C(C)N1 (stereo not given) | 655 | – |
| COC(=O)C1=C(C)NC(C)=C(C(=O)OC(C)(C)C)C1c1cccc(F)c1 (stereo not given) | 1390 | – |
| COC(=O)C1=C(C)NC(C)=C(C(=O)OC(C)(C)C)C1c1ccc(Cl)cc1 (stereo not given) | 319 | – |
| COC(=O)C1=C(C)NC(C)=C(C(=O)OC(C)(C)C)C1c1ccc(C)cc1 (stereo not given) | 12000 | – |
| CCCC1=C(C(=O)OC)C(c2ccc(F)cc2Cl)C(C#N)=C(C)N1 (stereo not given) | 16 | Stability [1]: 4%; IC50 [2]: 100 nM; IC50 [3]: 700 nM; IC50 [5]: > 10000 nM; solubility [6]: 5 µM (≈ 1.74 µg/mL); Stability [7]: 4% |
| CCC1=C(C(=O)OC)C(c2ccccc2Cl)C(C#N)=C(C)N1 (stereo not given) | 232 | – |
| COCCN1C(C)=C(C#N)C(c2ccc(F)cc2F)C(C(=O)OC(C)(C)C)=C1C (stereo not given) | 3740 | – |
| CCCC1=C(C(=O)OC)C(c2ccccc2)C(C#N)=C(C)N1 (stereo not given) | 7430 | – |
| COC(=O)C1=C(C)NC(C)=C(C(=O)OC(C)(C)C)C1c1ccc(O)cc1 (stereo not given) | 2570 | – |

More lines, in order of falling IC50 [4], values ahead:

| IC50 [4] [nM] | Structure (SMILES) | further results |
| --- | --- | --- |
| 2020 | COC(=O)C1=C(C)NC(C)=C(C(=O)OC(C)(C)C)C1c1ccccc1F (stereo not given) | – |
| 1620 | CCN1C(C)=C(C#N)C(c2ccc(F)cc2F)C(C(=O)OC(C)(C)C)=C1C (stereo not given) | – |
| 661 | CC1=C(C#N)C(C)(c2ccc(F)cc2)C(C(=O)OC(C)(C)C)=C(C)N1 (stereo not given) | – |
| 518 | COC(=O)C1=C(C)NC(C)=C(C(=O)OC(C)(C)C)C1c1cccc(Cl)c1 (stereo not given) | – |
| 288 | COC(=O)C1=C(C)NC(C)=C(C(=O)OC(C)(C)C)C1c1ccc(F)cc1 (stereo not given) | – |
| 275 | COC(=O)C1=C(C(F)(F)F)N(C)C(C)=C(C#N)C1c1ccc(F)cc1Cl (stereo not given) | – |
| 224 | COC(=O)C1=C(C)NC(C)=C(C(=O)OC(C)(C)C)C1c1ccccc1C(F)(F)F (stereo not given) | – |
| 208 | COC(=O)C1=C(C(C)C)NC(C)=C(C#N)C1c1ccccc1Cl (stereo not given) | – |
